Assay results: US7709516B2, “Helix 12 directed non-steroidal antiandrogens” (Endorecherche, Inc., priority 2005, dated 2010)
Where two headings read alike, the source gives them in different places.

Legend:
[1] = tested on: rat prostate, seminal vesicle, levator ani muscle; experiment: Systemic antiandrogenic activity in orchidectomized immature male rats with DHT implant; format: in vivo; settings: for inhibition in vivo at 0.5 mg: Rattus norvegicus, 168 h; for Prostate % inhibition / Lev Ani % inhibition / SV % inhibition: Table 2
[2] = tested on: Shionogi mouse mammary carcinoma cells; experiment: Androgenic/antiandrogenic activity: inhibition of DHT-stimulated Shionogi cell number; format: cell-based; settings: DHT-stimulated Shionogi cell number
Human Androgen Receptor = target: T1, Human Androgen Receptor (Homo sapiens, UniProt P10275); experiment: Androgen receptor binding assay ([3H]R1881, HAP) in cytosol of HEK-293 cells transfected with hAR; settings: relative to R1881 = 100, transfected cells
T1 sequence (P10275 1-920): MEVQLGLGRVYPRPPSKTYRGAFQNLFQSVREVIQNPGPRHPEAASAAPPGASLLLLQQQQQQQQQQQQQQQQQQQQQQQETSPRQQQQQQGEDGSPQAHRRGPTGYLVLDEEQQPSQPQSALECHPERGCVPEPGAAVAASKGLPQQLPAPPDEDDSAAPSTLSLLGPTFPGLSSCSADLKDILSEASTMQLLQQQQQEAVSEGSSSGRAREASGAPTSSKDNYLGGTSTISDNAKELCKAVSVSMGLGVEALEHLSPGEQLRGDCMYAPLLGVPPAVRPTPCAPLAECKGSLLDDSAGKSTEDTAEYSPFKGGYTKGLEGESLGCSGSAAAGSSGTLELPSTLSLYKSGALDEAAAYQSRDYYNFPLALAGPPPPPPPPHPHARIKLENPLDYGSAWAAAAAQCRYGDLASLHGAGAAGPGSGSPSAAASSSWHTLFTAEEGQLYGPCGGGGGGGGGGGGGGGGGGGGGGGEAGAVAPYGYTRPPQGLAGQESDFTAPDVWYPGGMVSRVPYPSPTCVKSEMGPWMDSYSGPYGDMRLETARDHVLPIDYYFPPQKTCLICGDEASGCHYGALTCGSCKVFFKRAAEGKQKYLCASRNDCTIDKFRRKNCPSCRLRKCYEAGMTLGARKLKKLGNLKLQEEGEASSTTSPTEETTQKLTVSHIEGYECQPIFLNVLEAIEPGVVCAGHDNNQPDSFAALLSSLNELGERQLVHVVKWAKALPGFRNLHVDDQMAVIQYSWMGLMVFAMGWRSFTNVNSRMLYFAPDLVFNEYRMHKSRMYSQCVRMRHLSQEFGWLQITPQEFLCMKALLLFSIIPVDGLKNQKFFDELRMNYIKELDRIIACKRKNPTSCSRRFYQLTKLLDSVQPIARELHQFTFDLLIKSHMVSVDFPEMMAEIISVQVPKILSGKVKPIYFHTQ

[3] = read-out: Lev Ani % inhibition, Table 2, rat +DHT, s.c. or p.o. (route not marked), levator ani, 0.5 mg/animal daily 7 days
[4] = read-out: Prostate % inhibition, Table 2, rat +DHT, s.c. or p.o. (route not marked), 0.5 mg/animal daily 7 days
[5] = read-out: SV % inhibition, Table 2, rat +DHT, s.c. or p.o. (route not marked), seminal vesicle, 0.5 mg/animal daily 7 days
[6] = Mus musculus, read-out: Shionogi Antiandrogenic Activity IC50, Table 2
[7] = read-out: Prostate % inhibition
[8] = Mus musculus, Table 2, read-out: Shionogi Antiandrogenic Activity IC50
[9] = rat +DHT, s.c. or p.o. (route not marked), 0.5 mg/animal daily 7 days
[10] = rat +DHT, s.c. or p.o. (route not marked), levator ani, 0.5 mg/animal daily 7 days
[11] = rat +DHT, s.c. or p.o. (route not marked), seminal vesicle, 0.5 mg/animal daily 7 days
[12] = read-out: Lev Ani % inhibition, Table 1, rat +DHT, s.c. or p.o. (route not marked), levator ani, 0.5 mg/animal daily 7 days
[13] = read-out: Prostate % inhibition, Table 1, rat +DHT, s.c. or p.o. (route not marked in cell), 0.5 mg/animal daily 7 days
[14] = read-out: SV % inhibition, Table 1, rat +DHT, s.c. or p.o. (route not marked), seminal vesicle, 0.5 mg/animal daily 7 days
[15] = Mus musculus, read-out: Shionogi Antiandrogenic Activity IC50, Table 1

Compound | IC50 [2, 6] | Human Androgen Receptor Binding (%) RBA R1881 = 100 (Human Androgen Receptor; Table 2) | inhibition in vivo at 0.5 mg [1, 12] | inhibition in vivo at 0.5 mg [1, 13] | inhibition in vivo at 0.5 mg [1, 14] | IC50 [2, 15] | Human Androgen Receptor Binding (%) RBA R1881 = 100 (Human Androgen Receptor; Table 1) | also measured
Cc1cc(CN2CCCC2)ccc1OCCC1(O)CCN(c2ccc(C#N)c(C(F)(F)F)c2)CC1 [EM-7657] | 22 nM | 3.0% | – | – | – | – | – | inhibition in vivo at 0.5 mg [1, 3]: 55%; inhibition in vivo at 0.5 mg [1, 4]: 24%; inhibition in vivo at 0.5 mg [1, 5]: 41%
Cc1cc(CN2CCOCC2)ccc1OCCC1(O)CCN(c2ccc(C#N)c3ccccc23)CC1 [EM-7676] | – | 0.3% | – | – | – | – | – | inhibition in vivo at 0.5 mg ([1]; read-out: Lev Ani % inhibition): 0%; inhibition in vivo at 0.5 mg [1, 7]: 0%; inhibition in vivo at 0.5 mg ([1]; read-out: SV % inhibition): 3%; IC50 [2, 8]: 147 nM
Cc1cc(CN2CCCC2)ccc1OCCC1(O)CCN(c2ccc(C#N)c(Cl)c2)CC1 [EM-7678] | 13.8 nM | 3.5% | – | – | – | – | – | Prostate % inhibition [1, 9]: 7%; Lev Ani % inhibition [1, 10]: 9%; SV % inhibition [1, 11]: 10%
CCC(NC1CCCCC1)c1ccc(COCCN2CCN(c3ccc(C#N)c(C(F)(F)F)c3)CC2)cc1 (stereo not shown) [EM-7727] | 70.4 nM | <1.0% | – | – | – | – | – | inhibition in vivo at 0.5 mg [1, 3]: 0%; inhibition in vivo at 0.5 mg [1, 4]: 0%; inhibition in vivo at 0.5 mg [1, 5]: 8%
Cc1cc(CN2CCCC2)ccc1OCCC1(O)CCN(c2ccc(C#N)c(Cl)c2)CC1 [EM-7735] | – | 9.6% | – | – | – | – | – | Prostate % inhibition [1, 9]: 0%; Lev Ani % inhibition [1, 10]: 29%; SV % inhibition [1, 11]: 23%; IC50 ([2]; read-out: Shionogi Antiandrogenic Activity IC50, Table 2): 7.9 nM
CCC(c1ccc(OCCC2(O)CCN(c3ccc(C#N)c4ccccc34)CC2)cc1)N1CCCC1 (stereo not shown) [EM-7738] | – | 10.5% | – | – | – | – | – | inhibition in vivo at 0.5 mg ([1]; read-out: Lev Ani % inhibition): 10%; inhibition in vivo at 0.5 mg [1, 7]: 0%; inhibition in vivo at 0.5 mg ([1]; read-out: SV % inhibition): 16%; IC50 [2, 8]: 18.3 nM
Cc1cc(CN2CCCC2)ccc1OCCCN1C(=S)N(c2ccc(C#N)c3ccccc23)C(=O)C1(C)C [EM-7775] | – | – | 10% | 0% | 25% | 60.5 nM | 13.2% | –
Cc1cc(CN2CCCC2C)ccc1OCCC1(O)CCN(c2ccc(C#N)c(Cl)c2)CC1 (stereo not shown) [EM-7791] | 20.5 nM | 1.0% | – | – | – | – | – | inhibition in vivo at 0.5 mg [1, 3]: 14%; inhibition in vivo at 0.5 mg [1, 4]: 0%; inhibition in vivo at 0.5 mg [1, 5]: 29%
CCC(CC)NC(CC)c1ccc(COCCN2CCN(c3ccc(C#N)c(C(F)(F)F)c3)CC2)cc1 (stereo not shown) [EM-7792] | 82.9 nM | <1.0% | – | – | – | – | – | inhibition in vivo at 0.5 mg [1, 3]: 7%; inhibition in vivo at 0.5 mg [1, 4]: 21%; inhibition in vivo at 0.5 mg [1, 5]: 0%
CC1(C)C(=O)N(c2ccc(C#N)c(Cl)c2)C(=S)N1CCCOc1ccc(CNC2CCCC2)cc1 [EM-7819] | – | – | 44% | 54% | 80% | 8.3 nM | 12.9% | –
CN(C)Cc1ccc(OCCCN2C(=S)N(c3ccc(C#N)c(Cl)c3)C(=O)C2(C)C)cc1 [EM-7821] | – | – | 32% | 50% | 75% | 5.2 nM | 6.1% | –
CC(C)NCc1ccc(OCCCN2C(=S)N(c3ccc(C#N)c(Cl)c3)C(=O)C2(C)C)cc1 [EM-7822] | – | – | 60% | 53% | 82% | 5.9 nM | 4.9% | –
CC(C)NCc1ccc(OCCCN2C(=S)N(c3ccc(C#N)c(C(F)(F)F)c3)C(=O)C2(C)C)nc1 [EM-7848] | – | – | 68% | 51% | 86% | 11.4 nM | 0.5% | –
CC(C)NCc1ccc(OCCCN2C(=S)N(c3ccc(C#N)c(C(F)(F)F)c3)C(=O)C2(C)C)c(F)c1 [EM-7918] | – | – | 53% | 44% | 64% | 6.6 nM | 16.9% | –
